In patent US20230025880A1, “FUSED TRICYCLIC COMPOUND AND MEDICINAL USE THEREOF” (JAPAN TOBACCO INC., priority 2020, published 2023):

Biological target: T1, human PDHK2 (hPDHK2) (Homo sapiens, UniProt Q15119)
T1 construct: made in house; host or cells: Escherichia coli BL21(DE3), pET-17b vector
Assay: Inhibitory action of PDHK2 activity (residual PDH activity, NADH absorbance at 340 nm)
Format: biochemical
Conditions: PDH/hPDHK2 complex, PDHK reaction 45 min at room temperature
Protocol: In the case of human PDHK2 (hPDHK2, NCBI Reference Database Accession number NM_002611.4), modified hPDHK2 cDNA wherein FLAG-Tag sequence was added to the N terminus of hPDHK2 cDNA clone (pReceiver-M01/PDK2-GeneCopoeia) as the base was prepared by polymerase chain reaction (PCR) and ligated to the NdeI/EcoRI site of pET-17b vector (Merck KGaA, Catalog Number 69663-3). The recombinant construct was transformed into Escherichia coli DH5α. The recombinant clones were identified, and plasmid DNA was isolated and subjected to the DNA sequence analysis. One clone which had the expected nucleic acid sequence was selected for expression work.
For expression of hPDHK2 activity, Escherichia coli strain BL21(DE3) cells (Merck KGaA, Catalog Number 69450-4) were transformed with the pET17b vector containing modified hPDHK2 cDNA. The Escherichia coli were grown to an optical density 0.6 ([…]) at 30° C. Protein expression was induced by the addition of 500 μmol/L isopropyl-β-thiogalactopyranoside. The Escherichia coli were cultured at 20° C. for 17-18 hr and harvested by centrifugation. The harvested Escherichia coli was resuspended in a suspension buffer (20 mmol/L HEPES-NaOH, 500 mmol/L sodium chloride, 1% ethylene glycol, 0.1% Pluronic (registered trademark) F-68 (pH 8.0), cOmplete, EDTA-free (Roche) (pH 8.0)), and disrupted by a microfluidizer M-110H (MIZUHO INDUSTRIAL CO., LTD.). The precipitate was removed by centrifugation and the supernatant was added to DDDDK-tagged Protein PURIFICATION GEL (MEDICAL & BIOLOGICAL LABORATORIES CO., LTD., Code No. 3329). DDDDK-tagged Protein PURIFICATION GEL was washed with a washing buffer (20 mmol/L HEPES-NaOH, 500 mmol/L sodium chloride, 1% ethylene glycol, 0.1% Pluronic F-68 (pH 8.0)) and the bound protein was eluted with elution buffer 1 (20 mmol/L HEPES-NaOH, 100 μg/mL peptide (amino acid sequence DYKDDDDK) (SEQ ID NO: 1), 500 mmol/L sodium chloride, 1% ethylene glycol, 0.1% Pluronic F-68 (pH 8.0)). The eluted fractions containing FLAG-Tagged protein were pooled, concentrated by an ultrafiltration method, added to a gel filtration column (HiLoad 26/60 Superdex 200 (GE Healthcare Life Sciences, Code No. 17-1070-01)), and eluted with elution buffer 2 (20 mmol/L HEPES-NaOH, 150 mmol/L sodium chloride, 0.5 mmol/L ethylenediaminetetraacetic acid (EDTA), 1% ethylene glycol, 0.1% Pluronic F-68 (pH 8.0)). The eluted fractions were pooled and preserved at −80° C.
PDH (porcine heart PDH complex, Sigma P7032) and 0.5 μg/mL hPDHK2 were mixed in an assay buffer (50 mmol/L 3-morpholinopropanesulfonic acid (pH 7.0), 20 mmol/L dipotassium hydrogen phosphate, 60 mmol/L potassium chloride, 2 mmol/L magnesium chloride, 0.4 mmol/L EDTA, 0.2% poloxamer, 2 mmol/L dithiothreitol) so that the final concentration of PDH was 0.025 U/mL, and the mixture was incubated at 4° C. overnight to obtain a PDH/hPDHK2 complex solution.
PDH was mixed with the assay buffer so that the final concentration was 0.025 U/mL, and the mixture was incubated at 4° C. overnight to prepare a PDH solution.
The test compounds were diluted with DMSO. To measure an inhibitory action of the test compound on the PDHK activity in the PDH/hPDHK2 complex solution, PDH/hPDHK2 complex solution (20 μL), test compound (1.5 μL) and 1.06 μmol/L ATP (diluted with assay buffer) (8.5 μL) were added to a 384 well microplate (Greiner Bio-One 781801) and PDHK reaction was performed at room temperature for 45 min (test compound well). DMSO (1.5 μL) was added to control wells instead of test compound. In addition, DMSO (1.5 μL) was added to blank wells instead of the test compound, and PDH solution was added instead of the PDH/hPDHK2 complex solution. To measure an inhibitory action of the test compound on the PDHK activity inherent in the PDH solution, a test compound was added and the PDH solution instead of the PDH/hPDHK2 complex solution was added to a blank+test compound well. […]

Row | Compound | IC50 [nM]
1 | C[C@H]1Cn2c(nnc2C2CC2c2ccccc2)-c2cnc([C@@](C)(O)C(F)(F)F)n21 (stereo partly shown) [Example 97] | 6.2
2 | C[C@H]1Cn2c(-c3ccc(F)c(OC(C)(C)C)c3)nnc2-c2cnc([C@@](C)(O)C(F)(F)F)n21 [Example 98] | 12
3 | C[C@H]1Cn2c(nnc2C2(F)CC2)-c2cnc([C@@](C)(O)C(F)(F)F)n21 [Example 99] | 8.5
4 | C[C@H]1Cn2c(nnc2C(C)(C(F)(F)F)C(F)(F)F)-c2cnc([C@@](C)(O)C(F)(F)F)n21 [Example 100] | 9.5
5 | C[C@H]1Cn2nc(O[C@@H]3CCOC3)cc2-c2cnc([C@@](C)(O)C(F)(F)F)n21 [Example 101] | 14
6 | C[C@H]1Cn2nc(O[C@H]3CCOC3)cc2-c2cnc([C@@](C)(O)C(F)(F)F)n21 [Example 102] | 16
7 | C[C@H]1Cn2c(cc(=O)n2C(F)F)-c2cnc([C@@](C)(O)C(F)(F)F)n21 [Example 103] | 26
